Source: PMC4201869 (Neuroendocrinology, 2014)
Several values for one entry are separate records, joined by “and”; a condition that tells them apart may be missing. Equal values may be shown once. Where no end group is shown, it is not given here.

Assays:
[1] = test system: GnRH neurons; type: cell-based, rat
[2] = molecular target: Kiss1R (Homo sapiens) (UniProt Q969F8); conditions: cited from earlier work
[3] = test system: GnRH neurons; test: Spontaneous action potential firing, current clamp, slices from female rats; type: cell-based, rat; conditions: 7-10 min after addition
[4] = test system: GnRH neurons; test: Current-voltage; type: cell-based, rat; conditions: 100 nM Kp-10, compared to control; representative recording (Figure 5B)
[5] = test system: GnRH neurons
[6] = test system: GnRH neurons; conditions: adult male mouse; cited from earlier work
[7] = test system: GnRH neurons; conditions: mice and guinea pigs; cited from earlier work

Sequence of Kp-10 (Q15726 whole entry, looked up): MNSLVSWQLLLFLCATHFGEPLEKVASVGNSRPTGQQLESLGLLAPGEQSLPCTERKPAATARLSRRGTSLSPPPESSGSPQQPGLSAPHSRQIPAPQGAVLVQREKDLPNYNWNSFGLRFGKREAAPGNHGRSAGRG
Sequence of UniProt Q969F8 (Q969F8 whole entry): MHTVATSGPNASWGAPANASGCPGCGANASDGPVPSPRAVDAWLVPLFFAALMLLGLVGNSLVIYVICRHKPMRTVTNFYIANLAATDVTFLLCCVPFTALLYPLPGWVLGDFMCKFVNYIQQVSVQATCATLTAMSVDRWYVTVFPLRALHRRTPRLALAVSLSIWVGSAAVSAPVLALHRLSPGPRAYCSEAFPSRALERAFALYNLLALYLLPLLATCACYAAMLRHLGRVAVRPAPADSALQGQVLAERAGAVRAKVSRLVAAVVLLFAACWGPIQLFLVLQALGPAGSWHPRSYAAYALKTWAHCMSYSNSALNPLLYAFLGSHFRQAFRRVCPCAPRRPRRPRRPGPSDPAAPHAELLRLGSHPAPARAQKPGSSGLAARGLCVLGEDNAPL

CART: Cocaine and Amphetamine Regulated Transcript (55–102, rat), American Peptide Company, excitatory neuropeptide (IPIYEKKYGQVPMCDAGEQCAVRKGARIGKLCDCPRGTSCNSFLLKCL; ends and bridges not checked; cysteine pairing not given here; UniProt P49192 82-129, looked up, fragment)
CART-induced firing and depolarization, in words [1]: persisted long after washout
GnRH neurons responding to CART ([1]; 30 nM CART, 8 out of 12 cells from 5 animals, without TTX): 60–70%
membrane depolarization by CART alone under TTX ([1]; 30 nM CART, TTX, n = 12 cells from 6 animals, mean ± SEM): 7.3 ± 0.6 mV and 7.3 ± 0.64 mV
membrane depolarization by CART ([1]; 30 nM CART, without TTX, p<0.0001): 7.8 ± 0.1 mV

Kp-10 (from UniProt Q15726)
Kd [2]: 2.7 nM

YNWNSFGLRY-NH2 [Kp-10, Mouse KiSS-1 (110–119)-NH2]
effect on action potential firing, in words [3]: stimulated the cell
reversal potential of kisspeptin-induced current [4]: −110 mV
depolarization by submaximal dose ([5]; 10 nM Kp-10, TTX, mean ± SEM): 14.6 ± 2.3 mV
maximum depolarization ([5]; 100 nM Kp-10, TTX, mean ± SEM): 20.2 ± 1.2 mV
depolarization, in words ([5]; current clamp, TTX 1.0 μM, female rats): very prolonged, concentration-dependent depolarization of GnRH neurons that persisted long after washout of the agonist
cells responding to kisspeptin ([5]; female rats, current clamp, TTX): Approximately 90%
GnRH neurons activated by kisspeptin [6]: about 90%
reversal potential of kisspeptin-induced currents [7]: −100 to −110 mV
